Source: US20080181961A1, “AMORPHOUS OXCARBAZEPINE AND THE PRODUCTION THEREOF” (ISP INVESTMENTS, INC., priority 2007, published 2008)

Test: Aqueous release, USP apparatus II (paddles), water with 6% Cremophor EL (sink conditions)
Type: physicochemical
Conditions: 37° C., 100 rpm to 60 minutes then 200 rpm for 15 minutes, 600 mg dose, FIG. 2
Description: Dissolution profiles can be determined using USP apparatus II (paddles) (VK 7010®, Varian Inc.), with a bath temperature of 37° C. and a paddle speed of 100 rpm for 60 minutes, followed by a paddle speed of 200 rpm for an additional 15 minutes.
The aqueous release of the spray dried powder was measured using USP apparatus II (paddles) at 37° C. in water with 6% Cremophor EL. The paddle speed was 100 rpm for the first 60 minutes, and then the paddle speed was increased to 200 rpm for an additional 15 minutes. A dose equivalent to 600 mg oxcarbazepine was filled into hard gelatin capsules (Qualicaps, Shionogi). This media creates sink conditions for the tested dose. • 5.
The release profile of this spray dried product was measured using the same dissolution method of Example 1, that is, in media that creates sink conditions for the tested dose. • 5.

oxcarbazepine release after the first 15 minutes: remained essentially constant
SMILES: NC(=O)N1c2ccccc2CC(=O)c2ccccc21 [crystalline oxcarbazepine, 10,11-dihydro-10-oxo-5H-dibenz[b,f]azepine-5-carboxamide]
